Structures are written as SMILES.

The experiment has as its system IL-23p19. Kind of experiment: LPS Induced IL23p19 in THP-1 Cells (with IFNγ Primed) Assay. The class given is cell-based, human. To be noted: Homo sapiens, THP-1, THP-1 cells, IFNγ (50 ng/mL) primed, 1 hour compound pre-incubation, LPS 1 ug/mL 18 hours, 10 pt; read-out: IL23-p19 ELISA, THP1-IFNy, LPS, 10 pt EC50. As for the experimental part: LPS Induced IL23p19 in THP-1 Cells (with IFNγ Primed) Assay
Method THP-1 Cells Stimulation:
On day 1, 50K/well THP-1 cells were seeded and primed with IFNγ (50 ng/mL) in 384-well plates for about 18 hours in RPMI media with 10% FBS. […] 50 μL/well 2× compound was added to 50 μL/well THP-1 cells (with IFNγ primed) in duplicate in 384 well tissue culture plates. […] Day 3, after stimulation for 18 hours at 37° C., 5% CO2, the assay plate was centrifuged and 70 μL/well supernatant was harvested. IL-23p19 protein in 70 μL/well of supernatant was measured by sandwich ELISA, and 25 μl/well Cell Titer Glo reagent was added to the remaining cells to measure compound toxicity.
Human IL-23p19 Sandwich ELISA:
Maxisorp immuno ELISA plates were pre-coated with 25 μL/well of anti-IL-23p19 capture antibody (2.5 ug/mL) in PBS overnight at room temperature. After washing with 1×PBST, the plates were blocked using 100 μL/well of 1% BSA in PBS for 2 hours at room temperature. The plates were washed three times with 1×PBST and 70 μL/well supernatant were added. The plates were incubated at room temperature for 2 hours with shaking and washed three times with 1×PBST. 25 μL/well of biotin labeled anti-IL-12(p40/p70) detection antibody (100 ng/mL) in PBS with 1% BSA was added and the plates were incubated at room temperature for 2 hours with shaking. After washing three times with 1×PBST, 25 μL/well of streptavidin-HRP (1:200) in PBS with 1% BSA was added and the plates were incubated at room temperature for 20 minutes with shaking. The plates were washed three times with 1×PBST and 25 μL/well of Super Signal ELISA Pico Chemiluminescent Substrate were added. The plates were read with a luminometer, and the chemiluminescence values were entered into Athena (Rigel) for curve fitting, EC50 calculation, and database storage.
What is called EC50 is the concentration at which the effect is half-maximal. On to `Cn1cc(NC(=O)c2cccc(-c3cncc(F)c3)n2)c(-c2ccccn2)n1` [Compound I-3, 5′-fluoro-N-(1-methyl-3-(pyridin-2-yl)-1H-pyrazol-4-yl)-[2,3′-bipyridine]-6-carboxamide], for which the EC50 was found to be 21.5 µM. In the case of `Cn1cc(NC(=O)c2cccc(-c3cncc(C#N)c3)n2)c(-c2ccccn2)n1` [Compound I-4, 5′-cyano-N-(1-methyl-3-(pyridin-2-yl)-1H-pyrazol-4-yl)-[2,3′-bipyridine]-6-carboxamide], the EC50 came out at 1900 µM. Take `Cn1cc(NC(=O)c2cccc(-c3cncnc3)n2)c(-c2ccccn2)n1` [Compound I-5, N-(1-methyl-3-(pyridin-2-yl)-1H-pyrazol-4-yl)-6-(pyrimidin-5-yl)picolinamide]: the EC50 was 40.1 µM. As to `Cn1cc(NC(=O)c2cccc(-c3ccc[nH]3)n2)c(-c2ccccn2)n1` [Compound I-10, N-(1-methyl-3-(pyridin-2-yl)-1H-pyrazol-4-yl)-6-(1H-pyrrol-2-yl)picolinamide], the EC50 is 655 µM. Consider `Cn1cc(NC(=O)c2cccc(-c3cncc(C(C)(C)O)c3)n2)c(-c2ccccn2)n1` [Compound I-14, 5′-(2-hydroxypropan-2-yl)-N-(1-methyl-3-(pyridin-2-yl)-1H-pyrazol-4-yl)-[2,3′-bipyridine]-6-carboxamide], for which the EC50 turned out to be 1.52 µM.

For the compound `Cc1cc(-c2cccc(C(=O)Nc3cn(C)nc3-c3ccccn3)n2)ccn1` [Compound I-15, 2′-methyl-N-(1-methyl-3-(pyridin-2-yl)-1H-pyrazol-4-yl)-[2,4′-bipyridine]-6-carboxamide], the EC50 was 63.6 µM. The value for `Cn1cc(NC(=O)c2cccc(-c3cncc(C(F)(F)F)c3)n2)c(-c2ccccn2)n1` [Compound I-17, N-(1-methyl-3-(pyridin-2-yl)-1H-pyrazol-4-yl)-5′-(trifluoromethyl)-[2,3′-bipyridine]-6-carboxamide] was 58.3 µM; that for `COc1ccc(-c2cccc(C(=O)Nc3cn(C)nc3-c3ccccn3)n2)cn1` [Compound I-20, 6′-methoxy-N-(1-methyl-3-(pyridin-2-yl)-1H-pyrazol-4-yl)-[2,3′-bipyridine]-6-carboxamide] was 128 µM. As to `COc1cc(-c2cccc(C(=O)Nc3cn(C)nc3-c3ccccn3)n2)ccn1` [Compound I-21, 2′-methoxy-N-(1-methyl-3-(pyridin-2-yl)-1H-pyrazol-4-yl)-[2,4′-bipyridine]-6-carboxamide], the EC50 came to 398 µM. As for `Cn1cc(NC(=O)c2cccc(-c3cncc(OCC(F)(F)F)c3)n2)c(-c2ccccn2)n1` [Compound I-24, N-(1-methyl-3-(pyridin-2-yl)-1H-pyrazol-4-yl)-5′-(2,2,2-trifluoroethoxy)-[2,3′-bipyridine]-6-carboxamide], the EC50 was determined as 101 µM. For the compound `Cn1cc(NC(=O)c2cccc(-c3cncc(N4CCOCC4)c3)n2)c(-c2ccccn2)n1` [Compound I-37, N-(1-methyl-3-(pyridin-2-yl)-1H-pyrazol-4-yl)-5′-morpholino-[2,3′-bipyridine]-6-carboxamide], the EC50 is 0.587 µM.

Take `Cn1cc(NC(=O)c2cccc(-c3cncc(S(C)(=O)=O)c3)n2)c(-c2ccccn2)n1` [Compound I-39, N-(1-methyl-3-(pyridin-2-yl)-1H-pyrazol-4-yl)-5′-(methylsulfonyl)-[2,3′-bipyridine]-6-carboxamide]: the EC50 came out at 1.39 µM.

For `Cn1cc(NC(=O)c2cccc(-c3ccnc(C(N)=O)c3)n2)c(-c2ccccn2)n1` [Compound I-41, N6-(1-methyl-3-(pyridin-2-yl)-1H-pyrazol-4-yl)-[2,4-bipyridine]-2′,6-dicarboxamide], the half-maximal effective concentration (EC50) was 116 µM. For `Cn1cc(NC(=O)c2cccc(-c3ccnc(C#N)c3)n2)c(-c2ccccn2)n1` [Compound I-42, 2′-cyano-N-(1-methyl-3-(pyridin-2-yl)-1H-pyrazol-4-yl)-[2,4′-bipyridine]-6-carboxamide], the EC50 stood at 25.5 µM.

Turning to `Cn1cc(NC(=O)c2cccc(-c3cnc4cc[nH]c4c3)n2)c(-c2ccccn2)n1` [Compound I-45, N-(1-methyl-3-(pyridin-2-yl)-1H-pyrazol-4-yl)-6-(1H-pyrrolo[3,2-b]pyridin-6-yl)picolinamide], the EC50 came out at 3.46 µM. For `Cn1cc(NC(=O)c2cccc(-c3ccc4[nH]ccc4c3)n2)c(-c2ccccn2)n1` [Compound I-46, 6-(1H-indol-5-yl)-N-(1-methyl-3-(pyridin-2-yl)-1H-pyrazol-4-yl)picolinamide] the value was 3.5 µM; for `Cn1cc(NC(=O)c2cccc(-c3ccc4cc[nH]c4c3)n2)c(-c2ccccn2)n1` [Compound I-47, 6-(1H-indol-6-yl)-N-(1-methyl-3-(pyridin-2-yl)-1H-pyrazol-4-yl)picolinamide], 3.6 µM; for `Cc1cccc(-c2cccc(C(=O)Nc3cn(C)nc3-c3ccccn3)n2)c1` [Compound I-49, N-(1-methyl-3-(pyridin-2-yl)-1H-pyrazol-4-yl)-6-(m-tolyl)picolinamide], 72.1 µM. For `Cc1ccc(-c2cccc(C(=O)Nc3cn(C)nc3-c3ccccn3)n2)cc1` [Compound I-50, N-(1-methyl-3-(pyridin-2-yl)-1H-pyrazol-4-yl)-6-(p-tolyl)picolinamide] the value was 5.44 µM. For the compound `COc1cccc(-c2cccc(C(=O)Nc3cn(C)nc3-c3ccccn3)n2)c1` [Compound I-51, 6-(3-methoxyphenyl)-N-(1-methyl-3-(pyridin-2-yl)-1H-pyrazol-4-yl)picolinamide], the EC50 was found to be 59.1 µM.

`Cn1cc(NC(=O)c2cccc(-c3cccc(N)c3)n2)c(-c2ccccn2)n1` [Compound I-57, 6-(3-aminophenyl)-N-(1-methyl-3-(pyridin-2-yl)-1H-pyrazol-4-yl)picolinamide]: the EC50 is 5.27 µM. As to `CNc1cccc(-c2cccc(C(=O)Nc3cn(C)nc3-c3ccccn3)n2)c1` [Compound I-58, N-(1-methyl-3-(pyridin-2-yl)-1H-pyrazol-4-yl)-6-(3-(methylamino)phenyl)picolinamide], the EC50 worked out at 15.2 µM. On to `Cn1cc(NC(=O)c2cccc(-c3cccc(NS(C)(=O)=O)c3)n2)c(-c2ccccn2)n1` [Compound I-60, N-(1-methyl-3-(pyridin-2-yl)-1H-pyrazol-4-yl)-6-(3-(methylsulfonamido)phenyl)picolinamide], for which the EC50 worked out at 14.8 µM. Turning to `Cn1cc(NC(=O)c2cccc(C3=CCN(C(=O)OC(C)(C)C)CC3)n2)c(-c2ccccn2)n1` [Compound I-61, tert-butyl 6-((1-methyl-3-(pyridin-2-yl)-1H-pyrazol-4-yl)carbamoyl)-3′,6′-dihydro-[2,4′-bipyridine]-1′(2′H)-carboxylate], the concentration giving a half-maximal response (EC50) came out at 22.3 µM. For the compound `Cn1cc(NC(=O)c2cccc(C3=CCNCC3)n2)c(-c2ccccn2)n1` [Compound I-62, N-(1-methyl-3-(pyridin-2-yl)-1H-pyrazol-4-yl)-1′,2′,3′,6′-tetrahydro-[2,4′-bipyridine]-6-carboxamide], the 50% effective concentration (EC50) worked out at 28 µM. On to `Cn1cc(NC(=O)c2cccc(C3CCNCC3)n2)c(-c2ccccn2)n1` [Compound I-63, N-(1-methyl-3-(pyridin-2-yl)-1H-pyrazol-4-yl)-6-(piperidin-4-yl)picolinamide], for which the half-maximal effective concentration (EC50) worked out at 26.6 µM.

Regarding `Cn1cc(NC(=O)c2cccc(C3=CCCN(C(=O)OC(C)(C)C)C3)n2)c(-c2ccccn2)n1` [Compound I-64, tert-butyl 6-((1-methyl-3-(pyridin-2-yl)-1H-pyrazol-4-yl)carbamoyl)-5′,6′-dihydro-[2,3′-bipyridine]-1′(2′H)-carboxylate], the concentration giving a half-maximal response (EC50) is 13.3 µM.
